Laboratory results: patent publication US20180030483A1, “PROCESS FOR PRODUCTION OF BIO-ALCOHOL” (DANISCO US INC., priority 2015, published 2018)
Like-named read-outs stand apart in the source and are kept apart here.

Tests used:
[1] = system: Saccharomyces cerevisiae; conditions: molasses media, 0 to 1000 ppm, 3 g active dry yeast, 32° C.
Description: Molasses Medium: The media was prepared by diluting 333 g molasses with water to final weight of 1000 g (w/w). To this 400 mg of urea was added as nitrogen source.
Saccharomyces cerevisiae was used in the form of active dry yeast at a concentration of 3% w/v or was pre-cultured by adding 6 g of active dry yeast into 100 ml YEGM in 250 ml Erlenmeyer's flask. The cultures were incubated at 32° C.±2° C. with mixing at 100 to 200 rpm to a final OD660 of 100±10. This culture was subsequently used as an inoculum for further fermentation studies at a concentration of 6% v/v.
The composition of the reaction products was measured by high pressure liquid chromatographic method (Agilent Isocratic system 1200, USA with RI detector) by injecting 20 μL of appropriately diluted samples onto a Aminex Column HPX-87H (catalogue number 1250140, Bio-Rad) maintained at 60° C. using 0.01N sulphuric acid as a mobile phase at a flow rate of 0.7 mL/min. The detection was carried out using Refractive index detector (RID).
Fermentation was carried out at 32° C.±2° C. in incubator shaker at 100-200 rpm. The fermentation was carried out until glucose value observed was less than 0.1% w/v. Thereafter, the samples were analysed for alcohol, organic acids, and glycerol profile by HPLC.
Batch fermentation was initiated by addition of sodium benzoate at a concentration ranging from 0 to 1000 ppm followed by 3 g of active dry yeast into 100 ml molasses media in 250 mL Erlenmeyer flasks. Fermentation was carried out in incubator shaker at 32° C.±2° C. at 100 to 200 rpm. Thereafter, the samples were analysed for alcohol, organic acids, and glycerol profile by HPLC.
Fermentation was carried out at 32° C.±2° C. in incubator shaker at 100 to 200 rpm. The fermentation was carried out until glucose value observed was less than 0.1% w/v. Thereafter, the samples were analysed for alcohol, organic acids, and glycerol profile by HPLC.

[2] = system: Saccharomyces cerevisiae; test: Batch yeast fermentation in YEGM medium with added organic acid salt; assay type: cell-based; conditions: increasing concentration 0 to 1000 ppm; for increase in ethanol production: 32° C., until glucose less than 0.1% w/v; for yeast growth: biomass by OD660
Description: Yeast Extract Glucose media (YEGM): YEGM was prepared by dissolving 0.75 g Yeast Extract and 10 g dextrose dissolved in 100 ml tap water with pH in range […]. The media was then sterilized at 121° C. for 20 min.
The yeast biomass was measured using UV-Vis spectrophotometers (Shimadzu UV-1800) by diluting with YEGM to an OD660 in range of 0.2 to 0.8 with Milli-Q water.
Thereafter, the samples were analysed for alcohol and glycerol profile by HPLC and yeast biomass by UV Spectrophotometer.

SMILES	acetic acid yield [1]	ethanol production [1]	glycerol yield [1]	glycerol yield [2]	increase in ethanol production [2]	yeast growth [2]
C/C=C/C=C/C(=O)[O-].[K+] [potassium sorbate]	reduced	increased	reduced	reduced	≥ 6%	reduced
O=C([O-])c1ccccc1.[Na+] [sodium benzoate]		increased	reduced	reduced	≥ 6%	reduced
